Experimental data: patent US7309484B2, “Compositions and methods for screening antibacterial compounds” (priority 2003, dated 2007)

Columns and labels:
[1] = system: liaI expression (liaI::pMUTIN lacZ fusion, strain BFS2470; also liaH::pMUTIN, BFS2469); test: Disk-diffusion assay, blue ring on X-Gal plates; type: cell-based, Bacillus subtilis; details: for disk-diffusion assay: qualitative screen of β-Galactosidase activity, blue ring at edge of zone of inhibition, LB plates with X-Gal, strain BFS2470; for induction of liaI / liaH expression, in words: strains BFS2469 and BFS2470; for Disk-diffusion assay: key: −: no induction; +: induction of yvql expression
Excerpt: The pMUTIN-insertion results in a disruption of the targeted gene and generates a transcriptional fusion to lacZ thereby allowing detection of both antibiotic sensitivity (as defined by the zone of inhibition around the disk) and inducibility (by the formation of a blue ring at the edge of the zone of inhibition) (Cao et al., 2002, Mol Microbiol. 45: 1267-1276, the entire teaching of which is incorporated herein). The disruption of liaI and liaH had no effect on the sensitivity of the mutants to any of the antibiotics tested. […] Equivalent levels of induction were also observed with the PliaI-74-cat-lacZ fragment (in HB0950), albeit with lower fold-changes (See, Table 2). While the mode of action is different for these antibiotics, all four interfere with the lipid II cycle, essential for the biosynthesis of cell envelope polymers (Lazar et al., 2002, Curr. Opin. Chem. Biol. 6: 786-93).
PliaI induction assays: Screening for liaI induction was done by disk diffusion assay essentially as described (Cai, S. J., and M. Inouye, 2002, J Biol Chem 277:24155-61). B. subtilis strains were inoculated from a fresh overnight LB agar plate and grown to mid-log phase (OD600 ˜0.45) at 37 YC with shaking. 20 μl of the culture was mixed with 3 ml of 0.7% soft LB agar (containing 40 μg of X-Gal per plate) and poured onto the bottom agar. After cooling and drying of the plates (20 min at 37 YC), filter paper disks (6 mm diameter) carrying 5 μl of stock solution (antibiotics normally 100 mg/ml; lysozyme 10 mg/ml; tunicamycin, surfactants, uncouplers 5 mg/ml each; inhibitors of protein biosynthesis as given in the media and growth conditions section) were placed on top of the agar. The plates were incubated at 37 YC overnight. After 12-24 h incubation, the plates were scored for the appearance of a blue ring at or near the edge of the zone of growth inhibition produced by the diffusion of the antibiotics from the filter disk.

[2] = system: liaI expression (pMUTIN-derived lacZ fusion, strain BFS2470); test: microbe, parasite or virus in culture; details: for fold induction of liaI expression: text to FIG. 4: bacitracin 100 μg/mL, tunicamycin 50 μg/mL, vancomycin 2 μg/mL, 30 minutes, nisin, ramoplanin results not shown
Description: Disc-diffusion assays were used to determine the spectrum of stimuli that induce the expression of liaIH. The B. subtilis strains BFS2469 and BFS2470 (Table 2), harboring pMUTIN-insertions in liaH and liaI respectively, were plated on a medium containing the indicator dye X-gal and overlaid with filter disks impregnated with various antibiotics that interfere with cell wall biosynthesis. Specifically, cultures of B. subtilis strain BFS2469 (liaH::pMUTIN) and BFS2470 (liaI::pMUTIN) were grown in LB medium to midlog phase, 2 mL for the un-induced control sample were harvested, and the remaining culture was induced with the three antibiotics for 30 minutes, before the cells of the induced sample were harvested. All samples were taken in duplicate from two independent cultures and the standard deviation is indicated by error bars.
Measurement of induction by β-galactosidase assays: Cells were inoculated from fresh overnight LB-plates and grown in LB-medium at 37° C. with aeration until they reached an O.D.600=0.45. 2 mL of cultures were harvested (un-induced control) and the cell pellets were shock frozen and kept at −70° C. The cultures were induced by addition of antibiotics to a final concentration of: bacitracin (100 μg/mL), tunicamycin (50 μg/mL) or vancomycin (2 μg/mL) and incubated for additional 30 min at 37° C. 2 mL of the cultures were harvested as described above (induced sample). The pellets were re-suspended in 1 mL of working buffer and assayed for β-galactosidase activity as described with normalization to cell density (Miller, 1972, the entire teaching of which is incorporated herein by reference).
For quantitative measurements of β-galactosidase activity, cells were inoculated from fresh overnight LB-plates and grown in LB medium at 37 YC with aeration until they reached an OD600 of 0.45. 2 ml of the culture was harvested (un-induced control) and the cell pellets were frozen and kept at −80 YC. The cultures were induced by addition of the compound to be tested to the final concentration as described in the individual figure legends and incubated for an additional 30 min at 37 YC. 2 ml of the cultures were harvested as described above. The pellets were re-suspended in 1 ml of working buffer (60 mM Na2HPO4, 40 mMNaH2PO4, 10 mM KCl, 1 mM MgSO4, 4 mM DTT) and assayed for β-galactosidase activity as described with normalization to cell density Kobayashi, K., et al., 2001, J Bacteriol 183:7365-7370). […] A sample was taken after 30 min for β-galactosidase assay and the turbidity of the remaining culture was measured for at least 5 hours to monitor the concentration-dependent effects of the antibiotics on cell growth.

[3] = system: B. subtilis strain BFS2470; test: Concentration-dependent induction/killing experiments; type: cell-based, Bacillus subtilis; details: for lacZ-expression at higher concentration: FIG. 7a; for lacZ-expression at higher concentration / effect on cell growth / optical density: in words; for effect on cell growth / optical density: high concentrations, FIG. 7b; for antibiotic concentration at maximum induction of liaI: β-galactosidase assay after 30 min, 0.01 to 100 μg/ml tested
Description: Concentration-dependent induction/killing experiments were performed for bacitracin, nisin, ramoplanin and vancomycin as shown in FIG. 7. In all four cases the induction of liaI occurred in a concentration-dependent manner (FIG. 7a), reaching a maximum at an antibiotic concentration of about 10 μg/ml (1 μg/mL for vancomycin). The time of antibiotic addition is indicated by an arrow. The antibiotic concentrations affecting the induction of PliaI according to the β3-galactosidase assay are indicated by white symbols. The corresponding concentrations are: bacitracin ([…]), nisin (50, 70 and 100 μg/ml), ramoplanin (20, 50 and 100 μg/mL) and vancomycin (5, 10, 50 and 100 μg/mL).
This finding correlates well with the bactericidal effects of these antibiotics as inferred from the dramatic decrease of optical density: there is little effect of bacitracin and vancomycin on cell growth during the first 30-60 min after addition even at high concentrations (FIG. 7b).
The cultures were incubated with aeration at 37° C.

[4] = system: liaI expression in B. subtilis; details: 10 min after vancomycin addition; cited from earlier work

Row | Compound | disk-diffusion assay [1] | also measured
1 | CC1(C)S[C@@H]2[C@H](NC(=O)[C@H](N)c3ccccc3)C(=O)N2[C@H]1C(=O)O [Ampicillin] | − | 
2 | CCCCCCCCCCCC[N+](C)(C)Cc1ccccc1.[Br-] [BDMDDA-Br, Benzyldimethyldodecylammonium bromide] | − | 
3 | CCCCCCCCCCCCCCCC[N+](C)(C)Cc1ccccc1.[Cl-] [BDMHDA-Cl, Benzyldimethylhexadecylammonium chloride] | + | induction of liaI / liaH expression, in words [1]: moderately induced
4 | N#CC(C#N)=NNc1cccc(Cl)c1 [CCCP] | − | induction of liaI / liaH expression, in words [1]: neither elevated liaIH expression
5 | O=C(N[C@H](CO)[C@H](O)c1ccc([N+](=O)[O-])cc1)C(Cl)Cl [Chloramphenicol] | − | 
6 | N[C@@H]1CONC1=O [D-cycloserin] | − | 
7 | O=[N+]([O-])c1ccc(O)c([N+](=O)[O-])c1 [DNP] | − | induction of liaI / liaH expression, in words [1]: neither elevated liaIH expression
8 | CCCCCCCCCCCCCCCC[N+](C)(C)C.[Br-] [HDTMA-Br, Hexadecyltrimethylammonium] | − | 
9 | CC1(C)S[C@@H]2[C@H](NC(=O)Cc3ccccc3)C(=O)N2[C@H]1C(=O)O [Penicillin G] | − | 
10 | CCCCCCCCCCCCOS(=O)(=O)[O-].[Na+] [SDS, sodium dodecylsulfate] | − | 
11 | CN[C@H](CC(C)C)C(=O)N[C@H]1C(=O)N[C@@H](CC(N)=O)C(=O)N[C@H]2C(=O)N[C@H]3C(=O)N[C@H](C(=O)N[C@H](C(=O)O)c4cc(O)cc(O)c4-c4cc3ccc4O)[C@H](O)c3ccc(c(Cl)c3)Oc3cc2cc(c3O[C@@H]2O[C@H](CO)[C@@H](O)[C@H](O)[C@H]2O[C@H]2C[C@](C)(N)[C@H](O)[C@H](C)O2)Oc2ccc(cc2Cl)[C@H]1O [Vancomycin] | + | induction of liaI / liaH expression, in words [1]: induced; fold induction at 2 µg/mL ([2]; Bacillus subtilis, 0.5 h, read-out: fold induction of liaI expression): ~65; lacZ-expression at higher concentration [3]: remained elevated; effect on cell growth / optical density [3]: little effect; antibiotic concentration at maximum induction of liaI [3]: ~1 µg/mL; increase in liaI expression level [4]: more than 100 fold
12 | NC[C@H]1O[C@H](O[C@H]2[C@H](O)[C@@H](O[C@H]3O[C@H](CO)[C@@H](O)[C@H](N)[C@H]3O)[C@H](N)C[C@@H]2N)[C@H](O)[C@@H](O)[C@@H]1O [kanamycin] | − | 
13 | CO[C@H]1/C=C/O[C@@]2(C)Oc3c(C)c(O)c4c(O)c(c(/C=N/N5CCN(C)CC5)c(O)c4c3C2=O)NC(=O)/C(C)=C\C=C\[C@H](C)[C@H](O)[C@@H](C)[C@@H](O)[C@@H](C)[C@H](OC(C)=O)[C@@H]1C [rifampicin] | − | 
14 | CN[C@@H]1[C@H](O)[C@H](NC)[C@H]2O[C@@]3(O)C(=O)C[C@@H](C)O[C@H]3O[C@@H]2[C@H]1O [spectinomycin] | − | 
15 | [H]/N=C(/N)N[C@H]1[C@H](O)[C@@H](O)[C@H](O[C@@H]2O[C@@H](C)[C@](O)(C=O)[C@H]2O[C@@H]2O[C@@H](CO)[C@H](O)[C@@H](O)[C@@H]2NC)[C@@H](N/C(N)=N\[H])[C@@H]1O [streptomycin] | − | 
16 | CN(C)[C@@H]1C(O)=C(C(N)=O)C(=O)[C@@]2(O)C(O)=C3C(=O)c4c(O)cccc4[C@@](C)(O)[C@H]3C[C@@H]12 [tetracycline] | − | 
17 | Lysozyme | − | induction of liaI / liaH expression, in words [1]: ineffective as an inducer
18 | Moenomycin | − | 
19 | Polymyxin B | − | 
20 | Ramoplanin | + | induction of liaI / liaH expression, in words [1]: induced; fold induction of liaI expression [2]: 420 fold; lacZ-expression at higher concentration [3]: strong decrease down to un-induced levels; effect on cell growth / optical density [3]: rapid cell lysis; antibiotic concentration at maximum induction of liaI [3]: about 10 μg/ml
21 | Triton X100 | − | 
22 | Tunicamycin | + | fold induction of liaI expression [2]: three-fold
